Source: the supplement of paper PMC11061612

What was measured:
[1] = tested on: KP-4 (Pancreatic Carcinoma); assay: Bliss excess, mean over the matrix (fraction); higher = more synergy
How it was run: (§1)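 After 24 hours at 37°C and 5% CO2 in 1536-well plates, cells in DMEM/F12 or RPMI plus 10% FBS received two-drug dose matrices for 72 hours. Viability came from CellTiter-Glo 2.0 luminescence and was scaled as inhibition, anchored at 0 by vehicle wells and at 1 by blank wells. Combination Emax is taken as the second-highest inhibition in the matrix, and Bliss excess as the observed combination effect less EA + EB − EA·EB, with EA and EB the single-agent effects.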

[2] = tested on: COR-L88 (Small Cell Lung Carcinoma); assay: combination Emax (second highest fraction inhibited in the dose matrix, 72 h); higher = more inhibition; extreme values may be limits of the assay
How it was run: as §1

[3] = tested on: RCC-JW (Kidney Carcinoma); assay: as above
How it was run: as §1

[4] = tested on: SKG-IIIa (Cervical Carcinoma); assay: as above
How it was run: as §1

[5] = tested on: MDA-MB-415 (Breast Carcinoma); assay: as above
How it was run: as §1

[6] = tested on: SK-CO-1 (Colorectal Carcinoma); assay: as above
How it was run: as §1

[7] = tested on: IA-LM (Non-Small Cell Lung Carcinoma); assay: as above
How it was run: as §1

[8] = tested on: CPC-N (Small Cell Lung Carcinoma); assay: as above
How it was run: as §1

GAK (Melanoma) = assay: as above
How it was run: as §1

[9] = tested on: MS-1 (Small Cell Lung Carcinoma); assay: as above
How it was run: as §1

[10] = tested on: HPAF-II (Pancreatic Carcinoma); assay: as above
How it was run: as §1

[11] = tested on: C-33-A (Cervical Carcinoma); assay: as above
How it was run: as §1

[12] = tested on: KP-4 (Pancreatic Carcinoma); assay: as above
How it was run: as §1

SK-N-SH (Neuroblastoma) = assay: as above
How it was run: as §1
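For Bliss excess, mean over the matrix in this document: after 72 h of two-drug dosing.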

Compound | Bliss excess [1] | combination Emax [2] | combination Emax [3] | combination Emax [4] | combination Emax [5] | combination Emax [6] | combination Emax [7] | combination Emax [8] | combination Emax (GAK (Melanoma)) | combination Emax [9] | combination Emax [10] | combination Emax [11] | combination Emax [12] | combination Emax (SK-N-SH (Neuroblastoma))
Cc1c2c(nn1C)CSCc1cc(n(C)n1)CSc1cc(c3ccccc3c1)OCCCc1c(C(=O)O)n(C)c3c-2c(Cl)ccc13 [AZD5991] + CS(=O)(=O)CCNCc1ccc(-c2ccc3ncnc(Nc4ccc(OCc5cccc(F)c5)c(Cl)c4)c3c2)o1 [Lapatinib] (first compound max 1 µM, 7x7, partner max 10 µM) | -0.0211 | 0.305 | 0.981 | 0.456 | 0.558 | 0.471 | 0.297 | 0.327 | 0.352 | 0.535 | 0.213 | 0.514 | 0.15 | 0.442
O=C(c1cc(Cc2n[nH]c(=O)c3ccccc23)ccc1F)N1CCN(C(=O)C2CC2)CC1 [Olaparib] + CN(CC[C@H](CSC1=CC=CC=C1)NC2=C(C=C(C=C2)S(=O)(=O)NC(=O)C3=CC=C(C=C3)N4CCC(CC4)[C@H](C5=CC=CC=C5C6=CC=C(C=C6)Cl)O)S(=O)(=O)C(F)(F)F)CCO [AZD4320] (first compound max 10 µM, 7x7, partner max 1 µM) | -0.0113 | 0.961 | 0.787 | 0.137 | 0.553 | 0.949 | 0.328 | 0.856 | 0.146 | 0.636 | 0.796 | 0.386 | 0.155 | 0.688
C[C@@H](Nc1cc(F)cc(F)c1)c1cc(C(=O)N(C)C)cc2c(=O)cc(N3CCOCC3)oc12 [AZD8186] + CC(=O)c1c(C)c2cnc(Nc3ccc(N4CCNCC4)cn3)nc2n(C2CCCC2)c1=O [Palbociclib] (first compound max 10 µM, 7x7, partner max 10 µM) | 0.0976 | 0.201 | 0.588 | 0.235 | 0.794 | 0.749 | 0.311 | 0.262 | 0.448 | 0.295 | 0.466 | 0.353 | 0.601 | 0.492
Cc1nc(-c2cn3c(n2)-c2ccc(-c4cnn(C(C)(C)C(N)=O)c4)cc2OCC3)n(C(C)C)n1 [Taselisib] + O=C(Nc1ccc2[nH]nc(-c3ccncc3)c2c1)[C@@H]1CCN(CC(=O)N2CCN(c3ccc(-c4ncccn4)cc3)CC2)C1 [SCH772984] (first compound max 10 µM, 7x7, partner max 5 µM) | 0.215 | 0.229 | 0.638 | 0.633 | 0.846 | 0.975 | 0.399 | 0.484 | 0.944 | 0.48 | 0.917 | 0.661 | 0.776 | 0.72
O=C(c1cc(Cc2n[nH]c(=O)c3ccccc23)ccc1F)N1CCN(C(=O)C2CC2)CC1 [Olaparib] + Cc1c2c(nn1C)CSCc1cc(n(C)n1)CSc1cc(c3ccccc3c1)OCCCc1c(C(=O)O)n(C)c3c-2c(Cl)ccc13 [AZD5991] (first compound max 10 µM, 7x7, partner max 1 µM) | -0.0386 | 0.227 | 0.163 | 0.128 | 0.339 | 0.785 | 0.0022 | 0.215 | 0.0885 | 0.501 | 0.0669 | 0.329 | 0.113 | 0.333
CC1(C)CCC(CN2CCN(c3ccc(C(=O)NS(=O)(=O)c4ccc(NCC5CCOCC5)c([N+](=O)[O-])c4)c(Oc4cnc5[nH]ccc5c4)c3)CC2)=C(c2ccc(Cl)cc2)C1 [Venetoclax] + CS(=O)(=O)CCNCc1ccc(-c2ccc3ncnc(Nc4ccc(OCc5cccc(F)c5)c(Cl)c4)c3c2)o1 [Lapatinib] (first compound max 1 µM, 7x7, partner max 10 µM) | -0.0168 | 0.534 | 0.967 | 0.201 | 0.242 | 0.345 | 0.207 | 0.148 | 0.229 | 0.473 | 0.192 | 0.444 | 0.0862 | 0.509
C[C@@H]1COCCN1c1cc(C2([S@](C)(=N)=O)CC2)nc(-c2ccnc3[nH]ccc23)n1 [AZD6738] + C1CC(C1)(C(=O)[O-])C(=O)[O-].N.N.[Pt+2] [Carboplatin] (first compound max 10 µM, 7x7, partner max 10 µM) | -0.0351 | 0.299 | 0.51 | 0.407 | 0.549 | 0.808 | 0.171 | 0.8 | 0.491 | 0.659 | 0.36 | – | 0.471 | 0.818
O=C(c1cc(Cc2n[nH]c(=O)c3ccccc23)ccc1F)N1CCN(C(=O)C2CC2)CC1 [Olaparib] + CC1(C)CCC(CN2CCN(c3ccc(C(=O)NS(=O)(=O)c4ccc(NCC5CCOCC5)c([N+](=O)[O-])c4)c(Oc4cnc5[nH]ccc5c4)c3)CC2)=C(c2ccc(Cl)cc2)C1 [Venetoclax] (first compound max 10 µM, 7x7, partner max 1 µM) | -0.0331 | 0.373 | 0.163 | 0.147 | 0.179 | 0.769 | 0.155 | 0.166 | 0.0703 | 0.453 | 0.119 | 0.305 | 0.135 | 0.545
